Laboratory results reported in ChEMBL document CHEMBL1909046, “DrugMatrix in vitro pharmacology data”.

Legend:
[1] = DRUGMATRIX: Tumor Necrosis Factor (TNF), Non-Selective radioligand binding (ligand: [125I] TNF-alpha); type: cell membranes, Membrane; details: u-937; Not Active = under 50% inhibition at 10 µM
[2] = target: Sodium-dependent noradrenaline transporter (Homo sapiens, UniProt P23975); experiment: DRUGMATRIX: Norepinephrine Transporter radioligand binding (ligand: [125I] RTI-55); type: cell membranes, MDCK, Membrane; details: Not Active = under 50% inhibition at 10 µM
Sodium-dependent noradrenaline transporter, sequence (P23975 whole entry): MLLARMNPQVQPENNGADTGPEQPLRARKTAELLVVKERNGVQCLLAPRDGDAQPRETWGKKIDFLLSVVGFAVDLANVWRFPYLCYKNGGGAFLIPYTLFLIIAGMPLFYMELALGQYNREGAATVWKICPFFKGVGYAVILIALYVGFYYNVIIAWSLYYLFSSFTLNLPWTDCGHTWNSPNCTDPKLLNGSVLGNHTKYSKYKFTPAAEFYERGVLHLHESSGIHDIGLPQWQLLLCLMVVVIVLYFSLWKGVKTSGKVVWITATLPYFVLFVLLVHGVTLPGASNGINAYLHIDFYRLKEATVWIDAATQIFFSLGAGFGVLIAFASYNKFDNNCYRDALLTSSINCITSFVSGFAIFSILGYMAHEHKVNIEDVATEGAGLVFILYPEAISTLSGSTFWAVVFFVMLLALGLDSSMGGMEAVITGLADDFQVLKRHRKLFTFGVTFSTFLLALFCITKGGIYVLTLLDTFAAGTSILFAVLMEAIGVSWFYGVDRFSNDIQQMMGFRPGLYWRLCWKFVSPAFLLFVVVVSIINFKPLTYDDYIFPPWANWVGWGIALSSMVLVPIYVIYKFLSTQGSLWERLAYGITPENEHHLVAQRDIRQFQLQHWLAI

[3] = target: 5-hydroxytryptamine receptor 2B (Homo sapiens, UniProt P41595); type: cell membranes, CHO-K1, Membrane; further: in other assays of this panel Not Active means under 50% inhibition at 10 µM
5-hydroxytryptamine receptor 2B, sequence (P41595 whole entry): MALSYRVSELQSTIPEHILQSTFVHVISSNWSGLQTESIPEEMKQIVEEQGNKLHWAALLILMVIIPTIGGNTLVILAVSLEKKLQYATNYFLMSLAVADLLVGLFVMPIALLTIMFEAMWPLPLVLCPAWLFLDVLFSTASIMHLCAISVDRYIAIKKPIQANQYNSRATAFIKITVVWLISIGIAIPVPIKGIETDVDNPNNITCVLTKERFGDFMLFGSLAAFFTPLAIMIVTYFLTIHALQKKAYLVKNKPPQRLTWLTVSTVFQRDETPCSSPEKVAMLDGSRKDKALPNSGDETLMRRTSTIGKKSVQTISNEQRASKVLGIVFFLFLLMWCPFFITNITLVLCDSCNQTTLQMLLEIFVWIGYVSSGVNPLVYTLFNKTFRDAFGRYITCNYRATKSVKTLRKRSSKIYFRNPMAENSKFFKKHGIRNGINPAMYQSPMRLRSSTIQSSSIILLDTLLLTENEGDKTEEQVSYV

[4] = target: T1, Cytochrome P450 2A6 (Homo sapiens, UniProt P11509); details: bti-tn-5b1-4; further: in other assays of this panel Not Active means under 50% inhibition at 10 µM
T1 sequence (P11509 whole entry): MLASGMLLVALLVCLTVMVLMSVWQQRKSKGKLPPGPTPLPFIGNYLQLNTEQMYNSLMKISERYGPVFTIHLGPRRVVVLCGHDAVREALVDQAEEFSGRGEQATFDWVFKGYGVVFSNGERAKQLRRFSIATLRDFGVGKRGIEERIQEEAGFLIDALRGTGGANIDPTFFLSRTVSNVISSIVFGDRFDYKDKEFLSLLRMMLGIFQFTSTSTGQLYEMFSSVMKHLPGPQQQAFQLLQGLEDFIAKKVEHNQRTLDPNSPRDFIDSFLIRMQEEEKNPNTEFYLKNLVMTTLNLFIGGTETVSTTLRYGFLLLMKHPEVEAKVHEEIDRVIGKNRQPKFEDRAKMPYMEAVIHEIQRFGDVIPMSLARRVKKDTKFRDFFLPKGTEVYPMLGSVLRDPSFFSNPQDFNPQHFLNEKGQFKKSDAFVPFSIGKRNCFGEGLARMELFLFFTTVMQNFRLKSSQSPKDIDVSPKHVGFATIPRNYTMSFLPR

[5] = target: Sodium-dependent dopamine transporter (Homo sapiens, UniProt Q01959); experiment: DRUGMATRIX: Dopamine Transporter radioligand binding (ligand: [125I] RTI-55); type: cell membranes, CHO-K1, Membrane; details: Not Active = under 50% inhibition at 10 µM
Sodium-dependent dopamine transporter, sequence (Q01959 whole entry): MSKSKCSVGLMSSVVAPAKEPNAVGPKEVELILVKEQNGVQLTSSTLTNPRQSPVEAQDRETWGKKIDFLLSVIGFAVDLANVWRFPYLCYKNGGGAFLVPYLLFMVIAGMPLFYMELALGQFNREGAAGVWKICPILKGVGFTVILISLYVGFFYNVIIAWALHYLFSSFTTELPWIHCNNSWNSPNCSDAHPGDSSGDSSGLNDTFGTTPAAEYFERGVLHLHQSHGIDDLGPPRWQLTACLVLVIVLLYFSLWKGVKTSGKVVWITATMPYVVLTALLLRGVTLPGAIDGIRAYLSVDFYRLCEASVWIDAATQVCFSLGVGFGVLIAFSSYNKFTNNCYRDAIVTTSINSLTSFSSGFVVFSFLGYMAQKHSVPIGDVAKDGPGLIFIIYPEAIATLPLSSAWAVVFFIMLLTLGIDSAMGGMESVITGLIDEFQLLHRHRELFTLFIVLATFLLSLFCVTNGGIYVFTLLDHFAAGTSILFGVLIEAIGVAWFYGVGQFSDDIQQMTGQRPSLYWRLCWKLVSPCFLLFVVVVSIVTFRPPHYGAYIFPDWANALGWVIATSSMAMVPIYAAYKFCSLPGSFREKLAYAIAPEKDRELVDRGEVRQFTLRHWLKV

[6] = target: Platelet-activating factor receptor (Homo sapiens, UniProt P25105); type: tissue-based; further: in other assays of this panel Not Active means under 50% inhibition at 10 µM
Platelet-activating factor receptor, sequence (P25105 whole entry): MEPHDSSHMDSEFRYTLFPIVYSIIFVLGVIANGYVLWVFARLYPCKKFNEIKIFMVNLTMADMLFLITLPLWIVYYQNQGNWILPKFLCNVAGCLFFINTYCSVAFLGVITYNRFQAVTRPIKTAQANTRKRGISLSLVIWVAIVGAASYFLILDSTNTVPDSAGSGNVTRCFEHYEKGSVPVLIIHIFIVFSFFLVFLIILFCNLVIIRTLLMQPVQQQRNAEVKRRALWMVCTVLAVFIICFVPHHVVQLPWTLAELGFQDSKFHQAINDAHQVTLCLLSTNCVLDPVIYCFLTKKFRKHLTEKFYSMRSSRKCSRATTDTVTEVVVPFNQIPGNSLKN

[7] = target: T2, Leukotriene C4 synthase (Cavia porcellus, UniProt A6XA80); type: tissue-based, Lung;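 further: enzyme inhibition assay of leukotriene C4 synthase, using LTA4 as the substrate; in other assays of this panel Not Active means under 50% inhibition at 10 µM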
T2 sequence (A6XA80 whole entry): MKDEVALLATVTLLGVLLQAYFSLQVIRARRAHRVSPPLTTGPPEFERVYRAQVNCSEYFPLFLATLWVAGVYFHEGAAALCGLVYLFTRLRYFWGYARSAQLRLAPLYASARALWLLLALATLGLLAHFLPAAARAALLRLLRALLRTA

Compound	IC50 [1]	Ki [1]	IC50 ([2]; mdck)	IC50 ([3]; cho-k1)	IC50 [4]	Ki [4]	IC50 ([5]; cho-k1)	IC50 [6]	IC50 [7]	IC50 ([3]; read-out: IC50)	Ki ([3]; read-out: Ki)	Ki ([2]; mdck)	Ki ([3]; cho-k1)	Ki ([5]; cho-k1)	Ki [6]	Ki [7]	IC50 ([2]; read-out: IC50)	Ki ([2]; read-out: Ki)	IC50 ([5]; read-out: IC50)	Ki ([5]; read-out: Ki)
Cn1c(=O)c2c(ncn2CC(O)CO)n(C)c1=O (stereo not given) [DYPHYLLINE]	Not Active	Not Active	Not Active	Not Active	Not Active	Not Active	Not Active	Not Active	Not Active											
O=c1cc(N2CCOCC2)oc2c(-c3ccccc3)cccc12 [LY-294002]	Not Active	Not Active	Not Active		Not Active	Not Active	Not Active	Not Active	Not Active	36.7 µM	23.4 µM									
C[C@@H]1C[C@H]2[C@@H]3CCC4=CC(=O)C=C[C@]4(C)[C@@]3(F)[C@@H](O)C[C@]2(C)[C@H]1C(=O)CO [DESOXIMETASONE]	Not Active	Not Active	Not Active	Not Active	Not Active	Not Active	Not Active	Not Active	Not Active											
CC(C)(C)NC(=O)[C@H]1CC[C@H]2[C@@H]3CC[C@H]4NC(=O)C=C[C@]4(C)[C@H]3CC[C@]12C [FINASTERIDE]	Not Active	Not Active	Not Active	Not Active	Not Active	Not Active	Not Active	Not Active	Not Active											
CCn1cc(C(=O)O)c(=O)c2cnc(N3CCCC3)nc21 [PIROMIDIC ACID]	Not Active	Not Active	Not Active	Not Active	Not Active	Not Active	Not Active	Not Active	Not Active											
CCN(CC)CCOCCC1=CCC2CC1C2(C)C (stereo not given) [MYRTECAINE]	Not Active	Not Active	Not Active	Not Active	Not Active	Not Active	Not Active	Not Active	Not Active											
COC(=O)Nc1nc2ccc([S+]([O-])c3ccccc3)cc2[nH]1 (stereo not given) [OXFENDAZOLE]	Not Active	Not Active	Not Active	Not Active	Not Active	Not Active	Not Active	Not Active	Not Active											
COC1=C(OC)C(=O)C(CCCCCCCCCCO)=C(C)C1=O [IDEBENONE]	Not Active	Not Active	Not Active	Not Active	Not Active	Not Active	Not Active	Not Active	Not Active											
C[C@]12C=CC(=O)C=C1CC[C@@H]1[C@@H]2[C@@H](O)C[C@@]2(C)[C@H]1CC[C@]2(O)C(=O)CO [PREDNISOLONE]	Not Active	Not Active	Not Active	Not Active	Not Active	Not Active	Not Active	Not Active	Not Active											
O=C1O[C@H]([C@@H](O)CO)C(O)=C1O [ASCORBIC ACID]	Not Active	Not Active	Not Active	Not Active	Not Active	Not Active	Not Active	Not Active	Not Active											
COc1ccc(C2C(=O)c3ccccc3C2=O)cc1 [ANISINDIONE]	Not Active	Not Active	Not Active	Not Active	Not Active	Not Active	Not Active	Not Active	Not Active											
Brc1c(NC2=NCCN2)ccc2nccnc12 [BRIMONIDINE]	Not Active	Not Active	Not Active	Not Active	Not Active	Not Active	Not Active	Not Active	Not Active											
COc1ccc(C(=O)N2CCCC2=O)cc1	Not Active	Not Active	Not Active	Not Active	Not Active	Not Active	Not Active	Not Active	Not Active											
C[C@@H]1C[C@H]2[C@@H]3CCC4=CC(=O)C=C[C@]4(C)[C@@]3(F)[C@@H](O)C[C@]2(C)[C@@]1(O)C(=O)CO [DEXAMETHASONE]	Not Active	Not Active	Not Active	Not Active	Not Active	Not Active	Not Active	Not Active	Not Active											
O=C(c1ccccc1C(F)(F)F)N1CCC(Cc2ccccc2)CC1	Not Active	Not Active	Not Active		Not Active	Not Active	Not Active	Not Active	Not Active	1.55 µM	0.986 µM									
CCC1(C)CC(=O)NC1=O (stereo not given) [ETHOSUXIMIDE]	Not Active	Not Active	Not Active	Not Active	Not Active	Not Active	Not Active	Not Active	Not Active											
GRAMICIDIN	Not Active	Not Active	Not Active	Not Active	Not Active	Not Active	Not Active	Not Active	Not Active			Not Active	Not Active	Not Active	Not Active	Not Active				
OC(CCCN1CCCCC1)(c1ccccc1)c1ccccc1 [DIPHENIDOL]	Not Active	Not Active	Not Active	Not Active	Not Active	Not Active	Not Active	Not Active	Not Active											
CCC(=O)O[C@]1(C(=O)CCl)[C@@H](C)C[C@H]2[C@@H]3CCC4=CC(=O)C=C[C@]4(C)[C@@]3(F)[C@@H](O)C[C@@]21C [CLOBETASOL PROPIONATE]	Not Active	Not Active	Not Active	Not Active	Not Active	Not Active	Not Active	Not Active	Not Active											
Cc1c(OCC(F)(F)F)ccnc1C[S+]([O-])c1nc2ccccc2[nH]1 (stereo not given) [LANSOPRAZOLE]	Not Active	Not Active	Not Active	Not Active	Not Active	Not Active	Not Active	Not Active	Not Active											
CCCOc1ccc(C(=O)OCCN(CC)CC)cc1N [PROPARACAINE]	Not Active	Not Active	Not Active	Not Active	Not Active	Not Active	Not Active	Not Active	Not Active											
CC(=O)[C@H]1[C@H](C#N)C[C@H]2[C@@H]3CC=C4C[C@@H](O)CC[C@]4(C)[C@H]3CC[C@@]21C [PREGNENOLONE CARBONITRILE]	Not Active	Not Active	Not Active	Not Active	Not Active	Not Active	Not Active	Not Active	Not Active											
CN(C)CC[C@@H](c1ccc(Cl)cc1)c1ccccn1 [DEXCHLORPHENIRAMINE]	Not Active	Not Active		Not Active	Not Active	Not Active		Not Active	Not Active								4.97 µM	4.92 µM	0.931 µM	0.739 µM
CC[C@H](C)[C@H]1O[C@]2(C=C[C@@H]1C)C[C@@H]1C[C@@H](C/C=C(\C)[C@@H](O[C@H]3C[C@H](OC)[C@@H](O[C@H]4C[C@H](OC)[C@@H](O)[C@H](C)O4)[C@H](C)O3)[C@@H](C)/C=C/C=C3\CO[C@@H]4[C@H](O)C(C)=C[C@@H](C(=O)O1)[C@]34O)O2.CO[C@H]1C[C@H](O[C@H]2[C@H](C)O[C@@H](O[C@@H]3/C(C)=C/C[C@@H]4C[C@@H](C[C@]5(C=C[C@H](C)[C@@H](C(C)C)O5)O4)OC(=O)[C@@H]4C=C(C)[C@@H](O)[C@H]5OC/C(=C\C=C\[C@@H]3C)[C@]54O)C[C@@H]2OC)O[C@@H](C)[C@@H]1O [ABAMECTIN]	Not Active	Not Active	Not Active	Not Active	Not Active	Not Active	Not Active	Not Active	Not Active											
